Experiments:
[1] = test system: SD rat peripheral blood lymphocyte counts; assay: Effect of S1P1 receptor agonists on rat vein (peripheral) blood lymphocyte counts; format: in vivo; details: 10 mg/Kg intragastric; for LYM 0 h: before administration; for Δ %: largest decrease of lymphocyte count vs 0 h; for LYM 24 h: 24 h after administration; for compared with 0 h (%) 1 h / compared with 0 h (%) 2 h / compared with 0 h (%) 4 h / compared with 0 h (%) 8 h / compared with 0 h (%) 12 h / compared with 0 h (%) 24 h: lymphocyte count change vs 0 h
Protocol: 10 mg of drugs were measured and placed in a mortar. After 4 mL of 5‰ CMC-Na were added, homogenous suspension was prepared in the mortar (one drop of twain-80 was added to help dissolving). Dosage: 10 mg/Kg, dose volume: 0.4 mL/100 g, intragastric administration.
Every medicated group was assigned three rats.
After the experimental animals stable in the clean environment for 24 h, 10 μL of blood was withdrawn via tail vein and diluted into 2 mL of diluents quickly. […] Then the prepared drugs were administered intragastrically to the animals. […] The animals were killed after 24 h.

[2] = test system: SD rat heart rate; assay: Effect of S1P1 receptor agonists on rat heart rate; format: in vivo; parameters: heart rate 0: unit not given beside the values; details: for heart rate 0.5 h / heart rate 1 h / heart rate 3 h / heart rate 6 h / heart rate 8 h / heart rate 24 h / heart rate 0 / heart rate pre-administration: intragastric; for heart rate 0: time 0, before administration; for HR delta %: (lowest heart rate postdose − pre-administration)/pre-administration; for heart rate pre-administration: before administration
[3] = test system: lymphocyte proliferation / cytotoxic T lymphocytes; details: MLR and CTL; background, Fujita et al.; cited from earlier work
[4] = Table 1, 1 h after administration
[5] = Table 1, 2 h after administration
[6] = Table 1, 4 h after administration
[7] = Table 1, 8 h after administration
[8] = Table 1, 12 h after administration
[9] = Table 2, 0.5 h after administration
[10] = Table 2, 1 h after administration
[11] = Table 2, 3 h after administration
[12] = Table 2, 6 h after administration
[13] = Table 2, 8 h after administration
[14] = Table 2, 24 h after administration

SMILES	LYM 0 h ([1]; Table 3)	LYM 1 h ([1]; Table 3, 1 h)	LYM 2 h ([1]; Table 3, 2 h)	LYM 4 h ([1]; Table 3, 4 h)	LYM 6 h ([1]; Table 3)	LYM 8 h ([1]; Table 3, 8 h)	LYM 12 h ([1]; Table 3, 12 h)	LYM 23 h ([1]; Table 3)	Δ % ([1]; Table 3)	Δ % = the percentage of change of rat heart rate before and after administration ([2]; Table 4)	heart rate 0.5 h ([2]; Table 4, 0.5 h)	heart rate 1 h ([2]; Table 4, 1 h)	heart rate 3 h ([2]; Table 4, 3 h)	heart rate 6 h ([2]; Table 4, 6 h)	heart rate 8 h ([2]; Table 4, 8 h)	heart rate 24 h ([2]; Table 4, 24 h)	heart rate 0 ([2]; Table 4)	LYM 0 h ([1]; Table 1)	LYM 1 h [1, 4]	LYM 2 h [1, 5]	further results
CCc1nc(-c2ccc(Sc3ccc(CCC(N)(CO)CO)cc3)cc2)co1 [Syl974]	6.55 ± 0.21 ×10^9/L	4.63 ± 0.61 ×10^9/L	5.27 ± 1.27 ×10^9/L	5.20 ± 0.61 ×10^9/L	5.77 ± 0.40 ×10^9/L	4.67 ± 0.61 ×10^9/L	2.23 ± 0.59 ×10^9/L	4.47 ± 1.36 ×10^9/L	65.9%	4.81%	382.63	388.00	396.19	368.56	364.11	363.13	381.50	–	–	–	–
CCCCCCC(=O)CCCCCC/C=C/C[C@@H](O)[C@H](O)[C@@](N)(CO)C(=O)O [ISP-I, myriocin]	–	–	–	–	–	–	–	–	–	–	–	–	–	–	–	–	–	–	–	–	activity relative to cyclosporine [3]: 10 fold
NC(CO)(CO)CCc1ccc(Oc2ccc(-c3coc(C4CC4)n3)cc2)cc1 [Syl955]	7.40 ± 2.18 ×10^9/L	6.27 ± 0.78 ×10^9/L	6.87 ± 0.90 ×10^9/L	6.83 ± 1.26 ×10^9/L	8.33 ± 2.70 ×10^9/L	6.53 ± 1.42 ×10^9/L	2.90 ± 0.95 ×10^9/L	4.93 ± 1.07 ×10^9/L	60.81%	21.72%	373.00	384.75	338.25	335.50	351.50	353.90	428.63	–	–	–	–
CCCc1nc(-c2ccc(Oc3ccc(C(O)CC(N)(CO)CO)cc3)cc2)co1 (centres unmarked) [Syl961]	7.90 ± 2.46 ×10^9/L	8.57 ± 2.55 ×10^9/L	6.40 ± 0.98 ×10^9/L	6.33 ± 2.25 ×10^9/L	5.83 ± 1.88 ×10^9/L	3.93 ± 1.78 ×10^9/L	3.67 ± 1.68 ×10^9/L	2.63 ± 0.31 ×10^9/L	66.67%	11.64%	382.56	364.33	379.45	344.36	363.08	363.27	389.75	–	–	–	–
NC(CO)(CO)CC(O)c1ccc(Oc2ccc(-c3coc(C4CC4)n3)cc2)cc1 (centres unmarked) [Syl963]	6.90 ± 0.95 ×10^9/L	4.67 ± 1.50 ×10^9/L	5.07 ± 2.10 ×10^9/L	6.67 ± 0.81 ×10^9/L	4.57 ± 1.29 ×10^9/L	4.13 ± 0.84 ×10^9/L	4.20 ± 2.52 ×10^9/L	2.43 ± 0.91 ×10^9/L	64.73%	4.58%	388.38	378.36	377.36	366.88	362.50	369.05	395.50	–	–	–	–
CCCCc1ccc(Oc2ccc(CCC(N)(CO)CO)cc2)cc1 [Syl926]	–	–	–	–	–	–	–	–	–	–	–	–	–	–	–	–	–	5.17 ± 2.12 × 10^9/L	3.40 ± 0.20 × 10^9/L	2.57 ± 0.84 × 10^9/L	LYM 4 h [1, 6]: 2.33 ± 0.90 × 10^9/L; LYM 8 h [1, 7]: 1.40 ± 0.79 × 10^9/L; LYM 12 h [1, 8]: 1.33 ± 0.42 × 10^9/L; LYM 24 h ([1]; Table 1): 1.37 ± 0.31 × 10^9/L; compared with 0 h (%) 1 h ([1]; Table 1, 1 h): 34.19%; compared with 0 h (%) 2 h ([1]; Table 1, 2 h): 50.32%; compared with 0 h (%) 4 h ([1]; Table 1, 4 h): 54.84%; compared with 0 h (%) 8 h ([1]; Table 1, 8 h): 72.90%; compared with 0 h (%) 12 h ([1]; Table 1, 12 h): 74.19%; compared with 0 h (%) 24 h ([1]; Table 1): 73.55%; HR delta % ([2]; Table 2): 9.60%; heart rate 0.5 h [2, 9]: 361.91; heart rate 1 h [2, 10]: 346.80; heart rate 3 h [2, 11]: 327.09; heart rate 6 h [2, 12]: 340.82; heart rate 8 h [2, 13]: 318.55; heart rate 24 h [2, 14]: 354.80; heart rate pre-administration ([2]; Table 2): 352.85
CC(C)c1nc(-c2ccc(Oc3ccc(C(O)CC(N)(CO)CO)cc3)cc2)co1 (centres unmarked) [Syl962]	8.03 ± 1.15 ×10^9/L	5.60 ± 0.90 ×10^9/L	5.83 ± 1.54 ×10^9/L	6.27 ± 1.42 ×10^9/L	3.63 ± 0.38 ×10^9/L	2.67 ± 0.67 ×10^9/L	3.10 ± 0.56 ×10^9/L	2.43 ± 0.59 ×10^9/L	69.70%	13.58%	397.13	374.88	358.58	343.63	337.00	331.89	390.00	–	–	–	–
CCc1nc(-c2ccc(Oc3ccc(CCC(N)(CO)CO)cc3)cc2)co1 [Syl934]	–	–	–	–	–	–	–	–	–	–	–	–	–	–	–	–	–	4.17 ± 0.40 × 10^9/L	3.60 ± 0.69 × 10^9/L	2.47 ± 0.23 × 10^9/L	LYM 4 h [1, 6]: 2.87 ± 0.55 × 10^9/L; LYM 8 h [1, 7]: 1.83 ± 0.68 × 10^9/L; LYM 12 h [1, 8]: 1.17 ± 0.49 × 10^9/L; LYM 24 h ([1]; Table 1): 1.33 ± 0.32 × 10^9/L; compared with 0 h (%) 1 h ([1]; Table 1, 1 h): 13.60%; compared with 0 h (%) 2 h ([1]; Table 1, 2 h): 40.80%; compared with 0 h (%) 4 h ([1]; Table 1, 4 h): 31.20%; compared with 0 h (%) 8 h ([1]; Table 1, 8 h): 56.00%; compared with 0 h (%) 12 h ([1]; Table 1, 12 h): 72.00%; compared with 0 h (%) 24 h ([1]; Table 1): 68.00%; HR delta % ([2]; Table 2): 2.4%; heart rate 0.5 h [2, 9]: 376.00; heart rate 1 h [2, 10]: 369.10; heart rate 3 h [2, 11]: 337.86; heart rate 6 h [2, 12]: 338.09; heart rate 8 h [2, 13]: 362.55; heart rate 24 h [2, 14]: 365.89; heart rate pre-administration ([2]; Table 2): 346.00
CC(C)c1nc(-c2ccc(Oc3ccc(CCC(N)(CO)CO)cc3)cc2)co1 [Syl935]	–	–	–	–	–	–	–	–	–	–	–	–	–	–	–	–	–	4.77 ± 0.21 × 10^9/L	3.73 ± 1.23 × 10^9/L	2.70 ± 1.05 × 10^9/L	LYM 4 h [1, 6]: 2.77 ± 0.72 × 10^9/L; LYM 8 h [1, 7]: 2.10 ± 0.36 × 10^9/L; LYM 12 h [1, 8]: 1.17 ± 0.31 × 10^9/L; LYM 24 h ([1]; Table 1): 1.73 ± 0.29 × 10^9/L; compared with 0 h (%) 1 h ([1]; Table 1, 1 h): 21.68%; compared with 0 h (%) 2 h ([1]; Table 1, 2 h): 43.36%; compared with 0 h (%) 4 h ([1]; Table 1, 4 h): 41.96%; compared with 0 h (%) 8 h ([1]; Table 1, 8 h): 55.94%; compared with 0 h (%) 12 h ([1]; Table 1, 12 h): 75.52%; compared with 0 h (%) 24 h ([1]; Table 1): 63.64%; HR delta % ([2]; Table 2): 15.90%; heart rate 0.5 h [2, 9]: 387.18; heart rate 1 h [2, 10]: 405.20; heart rate 3 h [2, 11]: 384.20; heart rate 6 h [2, 12]: 352.44; heart rate 8 h [2, 13]: 373.33; heart rate 24 h [2, 14]: 398.50; heart rate pre-administration ([2]; Table 2): 419.00
